Results from the METLIN SMRT retention time set (Domingo-Almenara et al. 2019).

Assay: gradient 5% acetonitrile 3 min, to 50% in 2 min, to 85% in 15 min, held 3 min, 100 µL/min
Details: column: Zorbax Extend-C18 2.1 x 50 mm; eluents: water / acetonitrile, 0.1% formic acid
Summary of the method: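 Using water and acetonitrile that each contained 0.1% formic acid, mixtures of ~100 pure standards were separated at 100 μL/min on a Zorbax Extend-C18 column (2.1 × 50 mm, 1.8 μm). The HPLC fed a quadrupole time-of-flight mass spectrometer working in positive and negative ionization mode, with dead and dwell volumes of 40 μL and 900 μL. Data were acquired over 3 months. Retention time was read from computationally picked adduct peaks after manual inspection of each.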

Row | RP-LC retention time [s] | Compound
1 | 827 | CC1(C)Cc2cccc(OCC(=O)N3CCC(c4nnc(-c5ccco5)s4)CC3)c2O1
2 | 693 | COCCn1c(CCCC(=O)Nc2ccc(Cl)cc2)nc2cccnc21
3 | 672 | COc1ccc(Br)c(C(=O)Nc2ccc3c(c2)C(=O)NCC3)c1
4 | 850 | CN1C(=O)c2cc(S(=O)(=O)Nc3ccc4c(c3)OCO4)ccc2Oc2cccnc21
5 | 869 | Cc1cccc(-c2nc(C)c(C(=O)NC3CC3)s2)c1
6 | 593 | COCc1cc(=O)n(CC(=O)Nc2ccc(F)cc2C)c(N)n1
7 | 782 | CC(C)c1ccc(NC(=O)Cn2nc3c4sc(N(C)C)nc4ncn3c2=O)cc1
8 | 611 | CCN1CCN(CC2CCN(S(=O)(=O)Cc3c(F)cccc3Cl)CC2)CC1
9 | 614 | N#Cc1cnn2ccn(C3OC(CO)C(O)C3O)c12 (centres undefined)
10 | 1060 | CCOc1ccc(S(=O)(=O)N2CCCC(C(=O)NC3CCCCCC3)C2)cc1 (centres undefined)
11 | 554 | CC(C)n1c(=O)c(NCc2ccc(N3CCCCC3)cc2)nc2ccncc21
12 | 698 | c1ccc(-c2ccc(CNCc3ccc4c(c3)OCO4)o2)cc1
13 | 655 | COc1ccc(CNC(=O)Cn2cnc3nc(N4CCCC(C(=O)NC5CC5)C4)sc3c2=O)cc1 (centres undefined)
14 | 1010 | CCCC(=O)Nc1ccc(-c2nc(-c3ccccc3)co2)cc1
15 | 768 | Clc1ccccc1N1CCN(Cc2nnc(-c3ccccc3)o2)CC1
16 | 785 | COc1ccc(S(=O)(=O)N2C[C@@H](F)C[C@H]2C(=O)N2CCCCC2)cc1Cl
17 | 770 | CCC(=O)N1CCc2cc(C(=O)N3CCCCCC3)ccc21
18 | 732 | COCCNC(=O)c1sc2c(cnc3cc4c(cc32)OCO4)c1-c1ccccc1
19 | 652 | CCCN(C)C(=O)c1c(C)oc2c1CN(C(=O)CC)CC2
20 | 1010 | CCN1C(=O)c2cc(S(=O)(=O)Nc3cccc(C)c3)ccc2Oc2cccnc21
21 | 576 | Cc1ccccc1C(=O)NCc1ccc2c(c1)ncn2C
22 | 712 | Cc1ccc(-c2cc3n(n2)CCCN(C(=O)C2CCOC2)C3)cc1 (centres undefined)

Row | RP-LC retention time [s] | Compound
23 | 695 | Cc1ccc(-c2ccc(-n3nc(C)c(S(=O)(=O)N4CCN(C)CC4)c3C)nn2)cc1
24 | 572 | COc1ccc(-c2ccc(N3CCN(c4ccccn4)CC3)nn2)cc1S(=O)(=O)N1CCOCC1
25 | 582 | C=CCNS(=O)(=O)c1c(C)[nH]c(=O)[nH]c1=O
26 | 554 | Cn1c(C2CCN(C(=O)c3cccc(Cl)c3)C2)nc2ccncc21 (centres undefined)
27 | 924 | Cc1noc(C2(NC(=O)c3ccc(Br)cc3)CCCCC2)n1
28 | 609 | COc1ccc(OC)c(Nc2nc(NCCO)c3cnn(C)c3n2)c1
29 | 926 | Cc1ccc(-n2c(=O)n(C)c(=O)c3cc(C(=O)Nc4ccccc4)cnc32)cc1
30 | 1020 | CCOC(=O)c1cc(C)nc2c1c(=O)n(Cc1ccc(OC)cc1)c(=O)n2C
31 | 908 | COC(=O)C1=CN(c2ccc(Br)cc2)c2ccccc2S1(=O)=O
32 | 1070 | CCc1nc(-c2cccc(-c3noc(CNS(=O)(=O)c4ccccc4)n3)c2)cs1
33 | 993 | COc1cc(NC(=O)Cn2cccc2-c2nnc(-c3ccccc3)o2)cc(OC)c1
34 | 712 | Cc1ccccc1C(=O)Nc1ccc(C(=O)N2CCCC(N(C)C)c3ccccc32)cc1 (centres undefined)
35 | 715 | O=C(NCCO)C(=O)NCC1(c2ccccc2)CCCC1
36 | 783 | O=C(NCc1ccco1)C1CCN(Cc2cc3ccccc3n2Cc2ccc(Cl)cc2)CC1
37 | 642 | CCn1ccc(C(=O)NC(C)C)n1
38 | 818 | COc1cc(NC(=O)NC2CCN(c3cc(C)cc(C)c3)C2=O)cc(OC)c1 (centres undefined)
39 | 642 | COCc1cn(C2CN(C(=O)COc3ccccc3)C2)nn1
40 | 915 | CC#C[C@@H](CC(=O)O)c1ccc(OCc2ccc(CN3CCC4(C=Cc5ccccc54)CC3)s2)cc1
41 | 797 | COc1ccc(C(=O)N2CCC(n3nc(-c4ccsc4)ccc3=O)CC2)cc1
42 | 718 | CC(=O)N1CCCN(C2=NS(=O)(=O)C(c3ccc(Cl)cc3)=C2C)CC1
43 | 598 | CC(=O)Nc1ccc(C(=O)NC2CCN(c3cc(N4CCCC4)cnn3)C2)cc1 (centres undefined)
44 | 1030 | Cc1ccc(CNC(=O)Cn2cccc(-c3nc(-c4ccc(Br)cc4)no3)c2=O)cc1

Row | RP-LC retention time [s] | Compound
45 | 653 | COc1cccc(C(=O)N2CCC(c3cc(N)on3)CC2)c1
46 | 1200 | Cc1nc2cc(-c3noc(COc4ccccc4)n3)ccc2n(C2CCCC2)c1=O
47 | 805 | COc1ccc2[nH]c(=O)c(CCC(=O)NCc3cccs3)cc2c1
48 | 601 | Cc1nnc(-c2ccc(S(=O)(=O)N3CCN(c4ccccn4)CC3)o2)o1
49 | 849 | Cc1cc(=O)n(CC(=O)Nc2cc(F)ccc2F)c(N2CCc3ccccc3C2)n1
50 | 712 | Cc1ccccc1N1CCN(C(=O)C2=CCN(Cc3cccc(F)c3)CC2)CC1
51 | 845 | O=C(c1nc(Nc2ccc(F)cc2)c2ccccc2n1)N1CCCCCC1
52 | 814 | Cc1ccccc1CNC(=O)C1CCCN1S(=O)(=O)c1cc2c(cc1C)NC(=O)C(C)O2 (centres undefined)
53 | 605 | O=C(Cn1c(=O)c2cccn2c2ccc(F)cc21)N1CCN(c2ccccn2)CC1
54 | 996 | Cc1cc(C)c(C(=O)N2CCCC(C(=O)N3CCN(c4cccc(C)c4C)CC3)C2)[nH]1 (centres undefined)
55 | 632 | Cc1noc(C)c1CC(=O)NCC12CCC=C1NC(=O)CC2 (centres undefined)
56 | 750 | COC(=O)c1cc(OCC(=O)Nc2ccc(F)cc2)c2cc(OC)c(OC)cc2n1
57 | 842 | CC(C)(C)c1ccc2oc(CN3CCN(C(=O)NCc4ccccc4)CC3)nc2c1
58 | 837 | O=S(=O)(c1ccccc1)c1nnn2c1nc(NCc1ccc(F)cc1)c1sccc12
59 | 907 | CC(C)c1ccc(NC(=O)C2CCN(C(=O)C(C)(C)C)CC2)cc1
60 | 659 | Cc1ccc(-n2cc3c(c(C(=O)N4CCN(c5ccccn5)CC4)c2=O)CC(C)(C)CC3=O)cc1
61 | 700 | COc1ccccc1-c1nc(Cn2nnc(-c3nc(-c4ccc5c(c4)OCO5)no3)c2C)c(C)o1
62 | 654 | CCOC(=O)c1cccc(Nc2nc(C)nc3c2CCC3)c1
63 | 683 | Cc1cc2nc(NC3=NCN(CC4CCCO4)CN3)nc(C)c2cc1C (centres undefined)
64 | 1220 | CCOC(=O)c1cccc(NC(=O)c2sccc2S(=O)(=O)N(C)c2ccc(OCC)cc2)c1
65 | 728 | CCOC(=O)C1CCN(C(=O)C2c3cc(OC)c(OC)cc3C(=O)N(C)C2c2cccs2)CC1 (centres undefined)
66 | 920 | Cc1ccc(C)c(N2CCN(c3ccnc(SCC(=O)NCCC(C)C)n3)CC2)c1

Row | RP-LC retention time [s] | Compound
67 | 912 | CC(C)NC(=O)N1CCN(c2nc3ccccc3n(Cc3ccccc3)c2=O)CC1
68 | 722 | CN1C(=O)CCC2(CNC(=O)Nc3ccc4c(c3)OCCO4)CCCC=C12 (centres undefined)
69 | 635 | COCc1cc(=O)n(CC(=O)Nc2cccc(Cl)c2)c(N)n1
70 | 1070 | COCCn1cc2c3c(cccc31)CN(C(=O)Nc1cc(Cl)ccc1OC)CC2
71 | 581 | CN(C)CCN(Cc1ccco1)C(=O)c1c2c(nc3ccccc13)C(=O)N(C1CCCCC1)C2
72 | 658 | CCOc1ccccc1NC(=O)N1CCN(c2cnn3c(C)nnc3c2)CC1
73 | 685 | CNC(=O)c1csc(NC(=O)c2cc(Cl)ccc2Cl)n1
74 | 954 | Cc1ccc(C)c(Nc2c(-c3ccc(Cl)cc3)nc3ncccn23)c1
75 | 602 | CC(C)(CO)NCc1ccc(-c2ccccc2F)o1
76 | 760 | Cc1cc(-c2csc(S(=O)(=O)N3CCN(CCOc4ccc(Cl)cc4)CC3)c2)on1
77 | 569 | COCCN1C(=O)CCc2cc(NS(=O)(=O)c3ccc(OC)c(OC)c3)ccc21
78 | 1140 | CCc1nc2cc(-c3noc(Cc4ccc(Cl)cc4)n3)ccc2o1
79 | 853 | Cc1ccc(CNC(=O)CC2CCN(C(=O)c3[nH]c(C)c(C(=O)OC(C)C)c3C)CC2)cc1
80 | 1050 | Cc1ccccc1-c1nnc(CSc2nnc(NC(=O)c3ccc(C(F)(F)F)cc3)s2)o1
81 | 842 | COc1cccc(CNC(=O)c2ccc3c(c2)N(C)C(=O)C2CCCCN32)c1 (centres undefined)
82 | 747 | CCCNC(=O)c1nc2cc(C)c(C)cc2n(C)c1=O
83 | 806 | N#Cc1nc(-c2ccc(COc3ccc(Cl)cc3)o2)oc1N1CCC(C(N)=O)CC1
84 | 1070 | Cn1c(=O)n(CC(=O)NC2CCCCC2)c(=O)c2cnc(-c3ccc(Cl)cc3)nc21
85 | 569 | Cc1cccc(C(=O)N2CCc3nc[nH]c3C2)c1
86 | 569 | O=C(Cn1ccc2ccn(Cc3cccnc3)c2c1=O)N1CCOCC1

Row | Compound | RP-LC retention time [s]
87 | CN1[C@@H]2CC(OC(=O)[C@H](CO)c3ccccc3)C[C@H]1[C@@H]1O[C@@H]12 (some centres undefined) | 619
88 | CN(C(=O)Cc1ccccc1)[C@H](CN1CCCC1)c1ccccc1 | 726
89 | COc1ccc(S(=O)(=O)N2[C@H]3CC[C@@H]2c2cnc(-c4ccccc4)nc2C3)cc1 | 1030
